In brackets after ≈: the same amount, converted by molar mass. Read-outs that look alike come from different tables or passages of the source. One block for each compound: values may come before it.
How the values were obtained:
[1] = reported in US 2005/0096351 A1; cited from earlier work
Equilibrium solubility = type: physicochemical; details: pH 1.8, 1% sodium lauryl sulfate
Procedure: A solid sample of 450 mg was stirred in 50 mL of dissolution medium (HCl buffer, pH 1.8, with 1% sodium lauryl sulfate) using a mechanical stir rod. Aliquots were filtered and centrifuged at 3500 rpm using 0.2-μm nylon syringe filters and immediately diluted 1 mL→50 mL, then 5 mL→425 mL with dissolution medium. In some cases, the undissolved solids were recovered and sent for X-ray powder diffraction (XPRD) studies.
(§1) Both the solubility and dissolution experiments were conducted in a medium of HCl buffer, pH 1.8, containing 1% sodium lauryl sulfate. The solubilities were estimated to be 3.15 mg/ml for Form 1 & 3.28 mg/ml for Form B, respectively.

[2] = Intrinsic dissolution (Woods apparatus); type: physicochemical; details: HCl buffer, pH 1.8, 1% sodium lauryl sulfate, 37° C., 50 rpm
Procedure: Dissolution experiments were carried out in a ELECTROLAB-8 dissolution apparatus equipped with a ETC-112 temperature controller. An intrinsic dissolution apparatus (Woods apparatus) was used. Samples were compressed at 2.0 metric tons for 1 min in KBr hydraulic press, giving a sample surface of 0.50 cm^2. A dissolution medium consisting of 900 mL HCl buffer, pH 1.8, with 1% sodium lauryl sulfate, was used for each experiment. The medium was degassed by vacuum filtration through a 0.45-μm nylon filter disk and maintained at 37° C. The apparatus was rotated at 50 rpm for each experiment. Aliquots were filtered immediately using 0.45-μm nylon syringe filters. In some cases, the undissolved solids were recovered and analyzed by X-ray powder diffraction (XRPD).
as §1

[3] = Thermal stability of Lenalidomide Form I; type: physicochemical; details: heating at 95 to 105° C. for 7 days
Procedure: The lenalidomide Form I obtained after drying temperature 65 to 75° C. under vacuum is taken subjected to heating at 95 to 105° C. in oil bath, kept in rotator vapor for 7 days, cool to room temperature and the sample is analyzed per IR, NMR, XRPD (X-ray powder diffractometry), DSC (differential scanning calorimetry) & TGA (thermogravimetry). […] The moisture content is also determined for sample and found to be less than 1%.

[4] = Accelerated stability studies; type: physicochemical
Procedure: The lenalidomide Form I sample are subjected to accelerated stability studies under following conditions & analyzed at initial after 1, 2, 3 and 6 months. • Condition 1—temperature: 40° C.±2° C. • Relative humidity: 75% RH±5% • Condition 1—temperature: 30° C.±2° C. • Relative humidity: 65% RH±5%
We have not observed major deviation in quality of samples analysed of initial samples after 1,2, 3 and 6 months.
No increase in impurity profile is observed in 1,2, 3 and 6 months sample.

Humidity test = type: physicochemical
Procedure: The anhydrous form of lenalidomide along with two batches (0812/006 & 0812/007 &) were subjected for humidity test.
NaBr, NH4Cl, KOH, Na2HPO4 were used as Saturated solution at temperature 25.1° C., 25° C., 24.7° C., 26.8° C. and humidity 84%, 79%, 23%, 93% respectively at initial water content of 0.08%.

[5] = Storage stability at room temperature; type: physicochemical; details: more than a year at room temperature (25-35° C.)
Procedure: The thus obtained anhydrous novel form is very stable at room temperature (25-35° C.) and is not absorbing water or converting to any reported hydrated forms.

[6] = Encapsulated Form I compared with […] capsules (XRPD, moisture content); type: physicochemical
Description: The sample of lenalidomide Form I API is encapsulated & compared with the […] capsules.

Bulk density = type: physicochemical
Description: Batch No—0812/006 • Untapped Density—0.286 g/ml • Tapped density—0.481 g/ml • III. Batch No—0812/006 • Untapped Density—0.286 g/ml • Tapped density—0.481 g/ml

[7] = Moisture content of prepared Form-I samples; type: physicochemical; details: samples as prepared
[8] = 40° C./75% RH and 30° C./65% RH, 1, 2, 3 and 6 months

Structure (SMILES): Nc1cccc2c1CN(C1CCC(=O)NC1=O)C2=O (centres unmarked) [Form A, 3-(4-amino-1-oxo-1,3-dihydro-isoindol-2-yl)-piperidine-2,6-Dione]
- hygroscopicity [1]: not hygroscopic

- solubility (Equilibrium solubility; HCl buffer, 25° C.): 3280 µg/mL (≈ 12.7 mM)
- dissolution rate [2]: 0.250 mg/min/cm^2
Structure (SMILES): Nc1cccc2c1CN(C1CCC(=O)NC1=O)C2=O (centres unmarked) [Form-B, 3-(4-amino-1-oxo-1,3-dihydro-isoindole-2-yl)-piperidine-2,6-dione, reference compound]
- moisture content [1]: 3.1%

Structure (SMILES): Nc1cccc2c1CN(C1CCC(=O)NC1=O)C2=O (centres unmarked) [Form-E, 3-(4-amino-1-oxo-1,3-dihydro-isoindole-2-yl)-piperidine-2,6-dione]
- moisture content [1]: 11.9%

- solubility (Equilibrium solubility; HCl buffer with 1% sodium lauryl sulfate, 25 °C, pH 1.8, aqueous with cosolvent or surfactant or cyclodextrin, thermodynamic from solid, read-out: solubility): 3150 µg/mL (≈ 12.1 mM)
- dissolution rate [2]: 0.421 mg/min/cm^2
- change in impurity profile [3]: No further change
- change in spectral data (IR, NMR, XRPD, DSC, TGA) [3]: No change is observed
- moisture content after heating [3]: less than 1%
- impurity profile [4, 8]: No increase
- moisture content after accelerated stability storage [4, 8]: 0.21 % w/w
- moisture content, initial ([4]; before accelerated stability storage): 0.09 % w/w
- water content after humidity test (Humidity test; KOH saturated solution, 24.7° C., humidity 23%): 0.12 % w/w
- water content after humidity test (Humidity test; NH4Cl saturated solution, 25° C., humidity 79%): 0.13 % w/w
- water content after humidity test (Humidity test; Na2HPO4 saturated solution, 26.8° C., humidity 93%): 0.10 % w/w
- water content after humidity test (Humidity test; NaBr saturated solution, 25.1° C., humidity 84%): 0.21 % w/w
- initial water content (Humidity test; before humidity test): 0.08%
- conversion to hydrated form on storage [5]: not converted into any hydrated from
- polymorphic form after encapsulation (XRPD) [6]: not changed even after encapsulation
- Tapped density (Bulk density; listed as 0812/005): 0.465 g/mL
- Untapped Density (Bulk density; listed as 0812/005): 0.278 g/mL
- Tapped density (Bulk density; listed as 0812/006): 0.481 g/mL
- Untapped Density (Bulk density; listed as 0812/006): 0.286 g/mL
- moisture content [7]: less than 0.1%
Structure (SMILES): Nc1cccc2c1CN(C1CCC(=O)NC1=O)C2=O (centres unmarked) [Form-I, 3-(4-amino-1-oxo-1,3-dihydro-isoindole-2-yl)-piperidine-2,6-dione]
- conversion to hydrated polymorphic form ([4]; 40° C./75% RH and 30° C./65% RH, up to 6 months): not converted in any of the hydrated polymorphic form

Reference: patent US8877932B2, “Anhydrous lenalidomide form-I” (Natco Pharma Limited, priority 2010, dated 2014)
